Test results as given in patent publication US10195222B2, “Acyclic nucleoside phosphonate diesters” (The Regents of the University of California, priority 2013, dated 2019).
Like-named read-outs stand apart in the source and are kept apart here.

Assays:
[1] = test system: HFF cells; assay: Cytotoxicity in HFF cells (HSV-2 table); conditions: read-out: CC50 (HFF cells); Table 10
[2] = test system: HSV-2; assay: HSV-2 plaque reduction assay in HFF cells; format: cell-based; conditions: for EC50: plaque reduction, 3 days, read-out: EC50 (HSV-2 antiviral activity in HFF cells); for Selectivity index: HSV-2 in HFF cells
Method: Antiviral assay. […] Plates were allowed to incubate for 37° C. for 1 hour. […] Plates were incubated at 37° C. for 3 days and monolayers were stained with crystal violet. Plaques were counted and results are expressed as μM concentration of drug which reduced plaques by 50% versus control plates without drug. (Richards et al, Antiviral Res. 2:27, 1982)

[3] = Cell proliferation assay (neutral red), normal human fibroblasts; format: cell-based; conditions: read-out: Cytotoxicity, CC50, Normal cells Human fibroblasts
Method: (§1) Method Cell Proliferation Assays: The various human fibroblast and human cervical cancer cell lines were plated at 5×10^3 per well in 96 well plates using media with 10% fetal bovine serum added and incubated for about 24 hr. Ten mM stock solutions of the compounds were prepared in 10% DMSO in distilled water. Serial drug dilutions were made in media containing 2% FBS to give a final […] concentration, added to the wells, and incubated at 37° C. for 5 days. Cytotoxicity was measured by neutral red reduction, as known in the art.

[4] = test system: HIV-1LAI; assay: HIV antiviral assay, p24 reduction in MT-2 cells; conditions: for Selectivity index: CC50/EC50, HIV-1 in MT-2 cells
[5] = Cytotoxicity in HFF cells (HSV-2 table); conditions: human, HFF cells
[6] = test system: Me180 (68) cervical cancer cells; assay: Cell proliferation assay (neutral red), Me180 cervical cancer cells; format: cell-based; conditions: Homo sapiens, ME-180, 120 h, read-out: Cytotoxicity, CC50, Cervical Cancer Cells Me180 (68)
Method: as §1

[7] = test system: HPV-11; assay: HPV-11 antiviral assay, DNA PCR in HEK 293 cells; format: cell-based; conditions: for Selectivity index: HPV-11 in HEK 293 cells
Text: (§2) Assay. DNA PCR in HEK 293 cells infected with HPV-11, EC50, effective concentration 50%; CC50, 50% reduction of cell proliferation. DNA PCR by the methods reported by Chiang et al, Proc Natl Acad Sci USA. 1992. 89(13):5799-803 and Taylor and Morgan, Virology. 2003. 10; 315(1):103-9.

[8] = Cytotoxicity (reduction of cell proliferation) in HEK 293 cells; format: cell-based; conditions: human, read-out: CC50 (50% reduction of cell proliferation)
Text: as §2

[9] = test system: HeLa (18) cervical cancer cells; assay: Cell proliferation assay (neutral red), HeLa cervical cancer cells; format: cell-based; conditions: Homo sapiens, 120 h, read-out: Cytotoxicity, CC50, Cervical Cancer Cells HeLa (18)
Method: as §1

[10] = test system: Caski (16) cervical cancer cells; assay: Cell proliferation assay (neutral red), Caski cervical cancer cells; format: cell-based; conditions: Homo sapiens, Ca-Ski, 120 h, read-out: Cytotoxicity, CC50, Cervical Cancer Cells Caski (16)
Method: as §1

[11] = test system: MT-2 cells (human T cell leukemia); assay: Cytotoxicity in MT-2 cells (flow cytometry, propidium iodide); format: cell-based; conditions: 72 hrs
Method: (§3) Method of cytotoxicity determination. MT-2 cells were incubated with drug for 72 hrs and harvested. Flow count beads (Beckman Coulter, Miami, Fla.) were added to the cell suspension followed by propidium iodide staining and analysis using flow cytometer and the 50% cytotoxic concentration (CC50) was calculated from the cell counts and viability.
as §3, with “Method” for “Method of”

[12] = Human alphaherpesvirus 2, HFF, 72 h

Structure (SMILES) | Selectivity index [4] | CC50 [5] | Selectivity index [2] | EC50 [2, 12] | Selectivity index [7] | CC50 [8] | other results
CCCCCCCCCCCCCCCCCCOCCOP(=O)(COCCn1cnc2c(=O)[nH]c(N)nc21)OCc1ccccc1 (centres unmarked) [Bn-ODE-PMEG fast, benzyl octadecyloxyethyl 9-(2-phosphonomethoxyethyl)guanine] | – | – | – | – | – | – | CC50 [1]: > 4000 nM; EC50 [2]: < 100 nM
CCCCCCCCCCCCCCCCCCOCCOP(=O)(CO[C@H](CO)Cn1cnc2c(N)ncnc21)OCc1ccccc1 (stereo partly drawn) [Bn-ODE-(S)-HPMPA, benzyl octadecyloxyethyl 9-(S)-[3-hydroxy-2-(phosphonomethoxy)propyl]adenine] | 17.7 | 5200 nM | >52 | < 100 nM | >370 | – | CC50 at 5 days ([3]; normal human fibroblasts (HFF)): 5200 ± 3900 nM; CC50 ([6]; 5 days, neutral red): 210 ± 70 nM
CCCCCCCCCCCCCCCCCCOCCOP(=O)(COCCn1cnc2c(N)ncnc21)OCc1ccccc1 (centres unmarked) [Bn-ODE-PMEA, benzyl octadecyloxyethyl 9-[2-(phosphonomethoxy)ethyl]adenine] | – | – | – | – | – | > 100000 nM | –
CCCCCCCCCCCCCCCCCCOCCOP(=O)(CO[C@H](CO)Cn1ccc(N)nc1=O)OCc1ccccc1 (stereo partly drawn) [Bn-ODE-(S)-HPMPC, benzyl octadecyloxyethyl 1-(S)-[(3-hydroxy-2-phosphonomethoxy)propyl]cytosine] | 6.7 | 4800 nM | >48 | < 100 nM | – | – | –
CCCCCCCCCCCCCCCCCCOCCOP(=O)(COCCn1cnc2c(=O)[nH]c(N)nc21)OCc1ccccc1 (racemic) [Bn-ODE-PMEG, benzyl octadecyloxyethyl 9-[2-(phosphonomethoxy)ethyl]guanine] | – | – | >10 | < 1000 nM | >151 | > 100000 nM | CC50 at 5 days [3]: 15000 ± 1500 nM; CC50 [9]: 310 ± 110 nM; CC50 [6]: 31 ± 20 nM; EC50 ([7]; HEK293, DNA PCR in HEK 293 cells infected with HPV-11): 660 nM; CC50 [10]: 15 ± 7 nM
CCCCCCCCCCCCCCCCCCOCCOP(=O)(COCCn1cnc2c(=O)[nH]c(N)nc21)OCc1ccccc1 (centres unmarked) [Bn-ODE-PMEG slow, benzyl octadecyloxyethyl 9-(2-phosphonomethoxyethyl)guanine] | – | – | – | – | – | – | EC50 ([4]; read-out: EC50 (HIV antiviral activity in MT-2 cells), p24 reduction, four days after infection): < 0.01 nM; CC50 ([11]; Table 7, read-out: CC50, 50% Cytotoxic concentration, MT2 cells T cell leukemia): < 10 nM; CC50 ([11]; Table 8, read-out: CC50 (MT-2 cells)): < 10 nM
